Measured values taken from the Bradley open melting point set (2014).

Q: Which melting point does the source give for `Nc1ccc2ncccc2c1` [6-aminoquinoline] here?
A: 117 °C

Q: Which melting point does the source give for `Cc1n[nH]c(=S)[nH]c1=O` [6-aza-2-thiothymine] here?
A: 220 °C

Q: Which melting point does the source give for `Cc1n[nH]c(=O)[nH]c1=O` [6-azathymine] here?
A: 213 °C

Q: Which melting point does the source give for `CCCC(=O)c1cc2cc(Br)ccc2oc1=O` [6-bromo-3-butyrylcoumarin] here?
A: 164 °C

Q: For `Brc1ccc2ncsc2c1` [6-bromobenzothiazole], which melting point is on record?
A: 53 °C

Q: Which melting point does the source give for `Cn1c(Cl)cc(=O)n(C)c1=O` [6-chloro-1,3-dimethyluracil] here?
A: 110 °C

Q: For `O=C(O)C1=Cc2cc(Cl)ccc2OC1` [6-chloro-2h-chromene-3-carboxylic acid], which melting point is on record?
A: 243 °C

Q: For `Oc1cc(C(F)(F)F)nc2ccc(Cl)cc12` [6-chloro-4-hydroxy-2-(trifluoromethyl)quinoline], which melting point is on record?
A: 279 °C

Q: For `CCOc1ccc(B(O)O)cn1` [6-ethoxypyridine-3-boronic acid], which melting point is on record?
A: 103 °C

Q: For `O=C1CCc2ccc(F)cc21` [6-fluoro-1-indanone], which melting point is on record?
A: 58 °C

Q: For `O=C(O)c1c(O)cccc1F` [6-fluorosalicylic acid], which melting point is on record?
A: 160 °C

Q: With `C=CCCCCC(=O)O` [6-heptenoic acid] as the molecule, how does the melting point read?
A: -6 °C

Q: Which melting point does the source give for `COc1ccc2c(c1)=NC(c1ccccc1)C=2c1ccccc1` (stereo not given) [6-methoxy-2,3-diphenyl-1H-indole] here?
A: 212 °C

Q: With `COc1ccc(B(O)O)cn1` [6-methoxypyridine-3-boronic acid] as the molecule, how does the melting point read?
A: 133 °C

Q: With `COc1ccc2ncccc2c1` [6-methoxyquinoline] as the molecule, how does the melting point read?
A: 19 °C

Q: With `Cc1ccc2ncccc2c1[N+](=O)[O-]` [6-methyl-5-nitroquinoline] as the molecule, how does the melting point read?
A: 117 °C

Q: With `O=Cc1cc2c(cc1[N+](=O)[O-])OCO2` [6-nitropiperonal] as the molecule, how does the melting point read?
A: 95 °C

Q: With `COc1cc(C=O)c([N+](=O)[O-])cc1OC` [6-nitroveratraldehyde] as the molecule, how does the melting point read?
A: 133 °C

Q: With `Cc1cc(=O)oc2cc(O)ccc12` [7-Hydroxy-4-methyl-2H-chromen-2-one] as the molecule, how does the melting point read?
A: 191 °C

Q: Which melting point does the source give for `CC(C)C1=C(O)C(=O)C2=C(C(=O)CC3C(C)(C)CCCC23C)C1=O` (stereo not given) [7-Oxoroyleanone] here?
A: 198 °C

Q: For `Brc1cccc2cc[nH]c12` [7-bromoindole], which melting point is on record?
A: 43 °C

Q: With `O=C1Nc2c(Br)cccc2C1=O` [7-bromoisatin] as the molecule, how does the melting point read?
A: 197 °C

Q: For `CCN(CC)c1ccc2c(C)cc(=O)oc2c1` [7-diethylamino-4-methylcoumarin], which melting point is on record?
A: 74 °C

Q: For `O=c1cc(C(F)(F)F)c2ccc(O)cc2o1` [7-hydroxy-4-(trifluoromethyl)coumarin], which melting point is on record?
A: 179 °C

Q: For `O=C1CC(c2ccccc2)Oc2cc(O)ccc21` (stereo not given) [7-hydroxyflavanone], which melting point is on record?
A: 188 °C

Q: For `CC(C)C1=C(O)C(=O)C2=C(CCC3C(C)(C)CCCC23C)C1=O` (stereo not drawn) [7alpha-12-Hydroxy-8,12-abietadiene-11,14-dione], which melting point is on record?
A: 181 °C

Q: For `O=C1c2ccccc2-c2cccc3cccc1c23` [7h-benz[de]anthracen-7-one], which melting point is on record?
A: 173 °C

Q: With `Nc1cccc2ccc(O)cc12` [8-amino-2-naphthol] as the molecule, how does the melting point read?
A: 208 °C

Q: Which melting point does the source give for `O=C(O)CCCCCCCBr` [8-bromooctanoic acid] here?
A: 39 °C

Q: For `C/C(=N\Nc1cccc2cccnc12)c1cccs1` [8-{(2E)-2-[1-(2-Thienyl)ethylidene]hydrazino}quinoline], which melting point is on record?
A: 160 °C

Q: With `O=C1C(=O)c2ccccc2-c2ccccc21` [9,10-phenanthrenequinone] as the molecule, how does the melting point read?
A: 210 °C

Q: Which melting point does the source give for `ClCc1c2ccccc2cc2ccccc12` [9-(chloromethyl)anthracene] here?
A: 140 °C

Q: For `Clc1c2ccccc2cc2ccccc12` [9-Chloroanthracene], which melting point is on record?
A: 104 °C

Q: With `CCn1c2ccccc2c2ccccc21` [9-Ethyl-9H-carbazole] as the molecule, how does the melting point read?
A: 69 °C

Q: Which melting point does the source give for `Cn1c2ccccc2c2ccccc21` [9-Methyl-9H-carbazole] here?
A: 91 °C

Q: For `Cc1c2ccccc2cc2ccccc12` [9-Methylanthracene], which melting point is on record?
A: 78 °C

Q: For `OCc1c2ccccc2cc2ccccc12` [9-anthracenemethanol], which melting point is on record?
A: 163 °C

Q: Which melting point does the source give for `Clc1c2ccccc2cc2ccccc12` [9-chloroanthracene] here?
A: 104 °C

Q: With `CCn1c2ccccc2c2ccccc21` [9-ethylcarbazole] as the molecule, how does the melting point read?
A: 69 °C

Q: With `CC1(C)CCC2=C1CCC1C2CCC2CC(=O)CCC21C` (stereo not given) [10,17,17-trimethylgon-13-en-3-one] as the molecule, how does the melting point read?
A: 135 °C

Q: With `Oc1cccc2ccc3cccnc3c12` [10-hydroxybenzo[h]quinoline] as the molecule, how does the melting point read?
A: 104 °C

Q: For `FC1(F)C2=CC=CC=C1C=CC=C2` [11,11-Difluoro-1,6-methano[10]annulene], which melting point is on record?
A: 119 °C

Q: Which melting point does the source give for `CCCCc1c2c(cc3c1-c1ccccc1OC3)CCCC2=O` [12-Butyl-9,10-dihydro-6H-naphtho[2,3-c]chromen-11(8H)-one] here?
A: 91 °C

Q: For `CCCCCCC(O)CCCCCCCCCCC(=O)O` (stereo not given) [12-Hydroxyoctadecanoic acid], which melting point is on record?
A: 80.5 °C

Q: Which melting point does the source give for `C[C@]12CCC(=O)C=C1CC[C@@H]1[C@@H]2CC[C@]2(C)C(=O)CC[C@@]12O` [14-hydroxyandrost-4-ene-3,17-dione] here?
A: 258 °C

Q: With `C=C1C(=O)C23C(OC(C)=O)CC4C(C)(C)CCC(OC(C)=O)C4(C)C2C(OC(C)=O)CC1C3OC(C)=O` (stereo not given) [15-oxokaur-16-ene-1,7,11,14-tetrayl tetraacetate] as the molecule, how does the melting point read?
A: 237 °C

Q: For `CC(=O)OC1CCC2(C)C3CCC4=C(CCC4(C)C#CCl)C3CCC2(C)C1` (stereo not given) [17-(chloroethynyl)-5,10,17-trimethylgon-13-en-3-yl acetate], which melting point is on record?
A: 110 °C

Q: For `CC(=O)OC1CCC2(C)C(CCC3C2CCC2(C)C3CCC2(O)C#Cc2ccccc2)C1` (stereo not given) [17-hydroxy-21-phenylpregn-20-yn-3-yl acetate], which melting point is on record?
A: 166 °C

Q: For `CC12CCC(=O)CC1CCC1C2CCC2(C)C1CCC2(O)CCc1ccccc1` (stereo not given) [17-hydroxy-21-phenylpregnan-3-one], which melting point is on record?
A: 177 °C

Q: With `CCC1(O)CCC2C3CCC4CC(OC(C)=O)CCC4(C)C3CCC21C` (stereo not given) [17-hydroxypregnan-3-yl acetate] as the molecule, how does the melting point read?
A: 165 °C

Q: For `C#CC1(O)CCC2C3CCc4cc(O)ccc4C3CCC21C` (stereo not given) [17a-Ethynylestradiol], which melting point is on record?
A: 141 °C

Q: Which melting point does the source give for `O=C(/C=C/OC(=O)c1ccccc1)CCc1ccccc1` [(1E)-3-oxo-5-phenylpent-1-en-1-yl benzoate] here?
A: 100 °C

Q: For `CC1(C)[C@H]2CC[C@](C)(C2)[C@H]1O` [(1R)-endo-fenchyl alcohol], which melting point is on record?
A: 41 °C

Q: Which melting point does the source give for `O=C(O)[C@@H]1[C@H](C(=O)O)[C@H]2C=C[C@@H]1C2` [(1R,2R,3S,4S)-Bicyclo[2.2.1]hept-5-ene-2,3-dicarboxylic acid] here?
A: 150 °C

Q: For `CN[C@@H](C)[C@H](O)c1ccccc1` [(1R,2S)-2-(Methylamino)-1-phenylpropan-1-ol], which melting point is on record?
A: 36 °C

Q: With `O[C@@H]1CCC[C@@H]1O` [(1R,2S)-Cyclopentane-1,2-diol] as the molecule, how does the melting point read?
A: 32.5 °C

Q: For `OC1[C@H]2CC[C@@H]1[C@H]1C=C[C@@H]2O1` (stereo partly drawn) [(1R,2S,5R,6S)-9-oxatricyclo[4.2.1.1~2,5~]dec-7-en-10-ol], which melting point is on record?
A: 122 °C

Q: With `CC1(C)C2CC[C@]1(C)C(=O)C2` [(1S)-1,7,7-Trimethylbicyclo[2.2.1]heptan-2-one] as the molecule, how does the melting point read?
A: 179 °C

Q: With `CC1(C)[C@@H]2CC[C@]13CS(=O)(=O)N[C@@H]3C2` [(1S,2R)-10,2-camphorsultam] as the molecule, how does the melting point read?
A: 183 °C

Q: Which melting point does the source give for `Nc1ccc(C/C(=N/O)c2ccc(N)cc2)cc1` [(1Z)-1,2-bis(4-aminophenyl)ethanone oxime] here?
A: 147 °C

Q: Which melting point does the source give for `CC1(C)O[C@]2(C)CC[C@H]1CC2` [(1s,4s)-1,3,3-Trimethyl-2-oxabicyclo[2.2.2]octane] here?
A: 2 °C

Q: Which melting point does the source give for `O=C(OCCc1cc([N+](=O)[O-])c(CCOC(=O)c2ccccc2)cc1[N+](=O)[O-])c1ccccc1` [(2,5-dinitrobenzene-1,4-diyl)diethane-2,1-diyl dibenzoate] here?
A: 158 °C

Q: Which melting point does the source give for `OC/C(Br)=C(\Br)CO` [(2E)-2,3-Dibromobut-2-ene-1,4-diol] here?
A: 113 °C

Q: Which melting point does the source give for `O=C(OC(=O)/C(=C/c1ccccc1)Cc1ccccc1)/C(=C/c1ccccc1)Cc1ccccc1` [(2E)-2-benzyl-3-phenylprop-2-enoic anhydride] here?
A: 108 °C

Q: Which melting point does the source give for `O=C(O)/C=C/c1ccccc1` [(2E)-3-Phenylacrylic acid] here?
A: 133 °C

Q: For `O=C(/C=C/c1ccc(-c2ccc(Cl)cc2)o1)c1ccccc1` [(2E)-3-[5-(4-Chlorophenyl)-2-furyl]-1-phenylprop-2-en-1-one], which melting point is on record?
A: 127 °C

Q: For `Cc1ccc(-c2ccc(/C=C/C(=O)c3ccccc3)o2)cc1` [(2E)-3-[5-(4-Methylphenyl)-2-furyl]-1-phenylprop-2-en-1-one], which melting point is on record?
A: 101 °C

Q: Which melting point does the source give for `O=C(/C=C/c1ccc(-c2ccc([N+](=O)[O-])cc2)o1)c1ccccc1` [(2E)-3-[5-(4-Nitrophenyl)-2-furyl]-1-phenylprop-2-en-1-one] here?
A: 158 °C

Q: Which melting point does the source give for `N#C/C=C/C#N` [(2E)-But-2-enedinitrile] here?
A: 97 °C

Q: With `CC12CCC(C=C/C1=N\O)C2(C)C` (stereo not given) [(2E)-N-hydroxy-1,8,8-trimethylbicyclo[3.2.1]oct-3-en-2-imine] as the molecule, how does the melting point read?
A: 146 °C

Q: With `C[C@@H](O)[C@@H](C)O` [(2R,3R)-Butane-2,3-diol] as the molecule, how does the melting point read?
A: 16 °C

Q: For `NC(=O)/C=C\C(=O)O` [(2Z)-4-Amino-4-oxobut-2-enoic acid], which melting point is on record?
A: 160 °C

Q: For `O=C1CSc2ccccc2N1` [(2h)1,4-benzothiazin-3(4h)-one], which melting point is on record?
A: 177 °C

Q: Which melting point does the source give for `COc1ccc(SCC(=O)O)cc1OC` [(3,4-dimethoxyphenylthio)acetic acid] here?
A: 102 °C

Q: Which melting point does the source give for `CC(C)[C@@H](C)/C=C/[C@@H](C)[C@H]1CC[C@H]2C3=CC=C4C[C@@H](O)CC[C@]4(C)[C@H]3CC[C@]12C` [(3beta,22E)-Ergosta-5,7,22-trien-3-ol] here?
A: 160 °C

Q: For `OCc1ccc(Cl)cc1` [(4-Chlorophenyl)methanol], which melting point is on record?
A: 71 °C

Q: With `Cc1cc(CO)nn1-c1ccccn1` [(5-methyl-1-pyridin-2-yl-1H-pyrazol-3-yl)methanol] as the molecule, how does the melting point read?
A: 45 °C

Q: Which melting point does the source give for `COC1=C(OC)/C(=C\CN=[N+]=[N-])OC1=O` [(5E)-5-(2-azidoethylidene)-3,4-dimethoxyfuran-2(5H)-one] here?
A: 56 °C

Q: For `C[C@]12CCC(=O)C=C1CC[C@@H]1[C@@H]2[C@@H](O)C[C@@]2(C)[C@H]1CC[C@]2(O)C(=O)CO` [(11beta)-11,17,21-Trihydroxypregn-4-ene-3,20-dione], which melting point is on record?
A: 220 °C

Q: Which melting point does the source give for `CC(C(=O)O)c1cccc(C(=O)c2ccccc2)c1` (stereo not drawn) [(+/+)-ketoprofen] here?
A: 93.9 °C
